Experimental data published in ChEMBL document CHEMBL1201862, “PubChem BioAssay data set” (2004).
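Each compound was tested at five concentrations against cells in 96-well plates for 48 hours. GI50: concentration for 50% inhibition of growth.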 Calls of active or inactive are those of the source. Rule as the data show it: active = GI50 up to about 1.1 µM and inactive = higher.

Legend:
Assay in all cases: NCI-60 cell line screen, 48 h
[1] = tested on: NCI-H23
[2] = tested on: KM-20L2
[3] = tested on: NCI-H226
[4] = tested on: EKVX
[5] = tested on: HOP-18
[6] = tested on: OVCAR-3
[7] = tested on: UO-31
[8] = tested on: SNB-75
[9] = tested on: 786-0
[10] = tested on: CCRF-CEM
[11] = tested on: HT-29
[12] = tested on: OVCAR-4
[13] = tested on: MOLT-4
[14] = tested on: Malme-3M
[15] = tested on: XF498
[16] = tested on: DMS-273
[17] = tested on: K562
[18] = tested on: SF-295
[19] = tested on: SF-539
[20] = tested on: M19-MEL
[21] = tested on: SR
[22] = tested on: SK-MEL-28
[23] = tested on: KM12
[24] = tested on: OVCAR-8
[25] = tested on: SNB-19
[26] = tested on: NCI-H460
[27] = tested on: DMS-114
[28] = tested on: NCI-H522
[29] = tested on: SF-268
[30] = tested on: RPMI-8226
[31] = tested on: SK-MEL-5
[32] = tested on: U-251
[33] = tested on: TK-10
[34] = tested on: SW-620
[35] = tested on: HOP-92
[36] = tested on: COLO 205
[37] = tested on: M14
[38] = tested on: HCT-116
[39] = tested on: HCC 2998
[40] = tested on: HOP-62
[41] = tested on: SN12C
[42] = tested on: LXFL 529
[43] = tested on: ACHN
[44] = tested on: HL-60
[45] = tested on: UACC-257
[46] = tested on: A549
[47] = tested on: CAKI-1
[48] = tested on: HCT-15
[49] = tested on: SK-MEL-2
[50] = tested on: UACC-62
[51] = tested on: OVCAR-5
[52] = tested on: LOX IMVI
[53] = tested on: IGROV-1
[54] = tested on: A498
[55] = tested on: RXF 393
[56] = tested on: SNB-78
[57] = tested on: DLD-1
[58] = tested on: SK-OV-3

## CCCCCCC1CCC2CCCC(C)N12 (stereo not given)
[1]
  GI50: 34.4 µM (inactive)
[2]
  GI50: 25.2 µM (inactive)
[3]
  GI50: > 100 µM (inactive)
[4]
  GI50: > 100 µM (inactive)
[5]
  GI50: 29.2 µM (inactive)
[6]
  GI50: > 100 µM (inactive)
[7]
  GI50: 19.7 µM (inactive)
[8]
  GI50: 39.8 µM (inactive)
[9]
  GI50: 30.1 µM (inactive)
[10]
  GI50: 19 µM (inactive)
[11]
  GI50: > 10 µM (inactive)
[12]
  GI50: 46.2 µM (inactive)
[13]
  GI50: 18.3 µM (inactive)
[14]
  GI50: > 10 µM (inactive)
[15]
  GI50: 19.4 µM (inactive)
[16]
  GI50: 27.4 µM (inactive)
[17]
  GI50: 13.8 µM (inactive)
[18]
  GI50: 43.4 µM (inactive)
[19]
  GI50: 76 µM (inactive)
[20]
  GI50: 27.7 µM (inactive)
[21]
  GI50: 23.2 µM (inactive)
[22]
  GI50: 53.6 µM (inactive)
[23]
  GI50: 30.6 µM (inactive)
[24]
  GI50: 45.6 µM (inactive)
[25]
  GI50: > 100 µM (inactive)
[26]
  GI50: 23.7 µM (inactive)
[27]
  GI50: 37 µM (inactive)
[28]
  GI50: 22.9 µM (inactive)
[29]
  GI50: 43.4 µM (inactive)
[30]
  GI50: 22.9 µM (inactive)
[31]
  GI50: 49.8 µM (inactive)
[32]
  GI50: 10.5 µM (inactive)
[33]
  GI50: 39.2 µM (inactive)
[34]
  GI50: 14.8 µM (inactive)
[35]
  GI50: 25.8 µM (inactive)
[36]
  GI50: 16 µM (inactive)
[37]
  GI50: 25.3 µM (inactive)
[38]
  GI50: 51.1 µM (inactive)
[39]
  GI50: 22.6 µM (inactive)
[40]
  GI50: > 100 µM (inactive)
[41]
  GI50: 95.9 µM (inactive)
[42]
  GI50: > 10 µM (inactive)
[43]
  GI50: 68.1 µM (inactive)
[44]
  GI50: 17.8 µM (inactive)
[45]
  GI50: 37.9 µM (inactive)
[46]
  GI50: 77.1 µM (inactive)
[47]
  GI50: > 100 µM (inactive)
[48]
  GI50: 32.8 µM
[49]
  GI50: 28.2 µM (inactive)
[50]
  GI50: > 100 µM (inactive)

## CC[C@@H]1C[C@@H]2CN3CCc4c([nH]c5ccc(OC)cc45)C(COC(=O)c4ccc(OC)c(OC)c4)(C2)C13
[1]
  GI50: 10.3 µM (inactive)
[2]
  GI50: 15.6 µM (inactive)
[3]
  GI50: 10.4 µM (inactive)
[4]
  GI50: 53.5 µM (inactive)
[5]
  GI50: 58.2 µM (inactive)
[6]
  GI50: 16.1 µM (inactive)
[7]
  GI50: 16.8 µM (inactive)
[8]
  GI50: 24.5 µM (inactive)
[9]
  GI50: 25.2 µM (inactive)
[51]
  GI50: 22.6 µM (inactive)
[52]
  GI50: 12.7 µM (inactive)
[10]
  GI50: 14.3 µM (inactive)
[11]
  GI50: 7.82 µM (inactive)
[12]
  GI50: 26.4 µM (inactive)
[13]
  GI50: 11.4 µM (inactive)
[14]
  GI50: > 10 µM (inactive)
[15]
  GI50: 17.3 µM (inactive)
[17]
  GI50: 7.91 µM (inactive)
[18]
  GI50: 19.5 µM (inactive)
[19]
  GI50: 18.8 µM (inactive)
[20]
  GI50: 36 µM (inactive)
[21]
  GI50: 13.6 µM (inactive)
[22]
  GI50: 43.3 µM (inactive)
[53]
  GI50: 20.2 µM (inactive)
[23]
  GI50: 23.8 µM (inactive)
[24]
  GI50: 31.6 µM (inactive)
[25]
  GI50: 37.6 µM (inactive)
[26]
  GI50: 21.3 µM (inactive)
[27]
  GI50: 11.6 µM (inactive)
[29]
  GI50: 33 µM (inactive)
[54]
  GI50: 21 µM (inactive)
[30]
  GI50: 16.1 µM (inactive)
[55]
  GI50: 14.2 µM (inactive)
[32]
  GI50: 16.5 µM (inactive)
[33]
  GI50: 32.2 µM (inactive)
[34]
  GI50: 14.6 µM (inactive)
[35]
  GI50: 10 µM (inactive)
[36]
  GI50: 21.2 µM (inactive)
[37]
  GI50: 14.9 µM (inactive)
[38]
  GI50: 4.34 µM (inactive)
[39]
  GI50: 20.3 µM (inactive)
[40]
  GI50: 22.9 µM (inactive)
[41]
  GI50: 17.4 µM (inactive)
[56]
  GI50: 19.6 µM (inactive)
[42]
  GI50: 10.6 µM (inactive)
[43]
  GI50: 24.4 µM (inactive)
[44]
  GI50: 14.5 µM (inactive)
[45]
  GI50: 18.3 µM (inactive)
[46]
  GI50: 33 µM (inactive)
[47]
  GI50: 19.5 µM (inactive)
[48]
  GI50: 18.4 µM
[49]
  GI50: > 10 µM (inactive)
[50]
  GI50: 13.7 µM (inactive)

## NS(=O)(=O)c1cc2c(cc1Cl)NC(C(=O)NNC(=O)c1ccncc1)=NS2(=O)=O
[1]
  GI50: > 100 µM (inactive)
[2]
  GI50: > 100 µM (inactive)
[3]
  GI50: > 100 µM (inactive)
[4]
  GI50: > 100 µM (inactive)
[5]
  GI50: > 100 µM (inactive)
[6]
  GI50: > 100 µM (inactive)
[7]
  GI50: > 100 µM (inactive)
[8]
  GI50: > 100 µM (inactive)
[9]
  GI50: > 100 µM (inactive)
[52]
  GI50: > 100 µM (inactive)
[10]
  GI50: > 100 µM (inactive)
[11]
  GI50: > 100 µM (inactive)
[12]
  GI50: > 100 µM (inactive)
[13]
  GI50: > 100 µM (inactive)
[14]
  GI50: > 100 µM (inactive)
[15]
  GI50: > 100 µM (inactive)
[16]
  GI50: > 100 µM (inactive)
[18]
  GI50: > 100 µM (inactive)
[19]
  GI50: > 100 µM (inactive)
[20]
  GI50: > 100 µM (inactive)
[21]
  GI50: > 100 µM (inactive)
[22]
  GI50: > 100 µM (inactive)
[53]
  GI50: > 100 µM (inactive)
[23]
  GI50: > 100 µM (inactive)
[24]
  GI50: > 100 µM (inactive)
[25]
  GI50: > 100 µM (inactive)
[26]
  GI50: > 100 µM (inactive)
[57]
  GI50: > 100 µM (inactive)
[58]
  GI50: > 100 µM (inactive)
[27]
  GI50: > 100 µM (inactive)
[28]
  GI50: > 100 µM (inactive)
[29]
  GI50: > 100 µM (inactive)
[31]
  GI50: > 100 µM (inactive)
[55]
  GI50: > 100 µM (inactive)
[33]
  GI50: > 100 µM (inactive)
[34]
  GI50: > 100 µM (inactive)
[35]
  GI50: > 100 µM (inactive)
[36]
  GI50: > 100 µM (inactive)
[37]
  GI50: > 100 µM (inactive)
[38]
  GI50: > 100 µM (inactive)
[39]
  GI50: > 100 µM (inactive)
[40]
  GI50: > 100 µM (inactive)
[41]
  GI50: > 100 µM (inactive)
[42]
  GI50: > 100 µM (inactive)
[43]
  GI50: > 100 µM (inactive)
[44]
  GI50: > 100 µM (inactive)
[45]
  GI50: > 100 µM (inactive)
[46]
  GI50: > 100 µM (inactive)
[47]
  GI50: > 100 µM (inactive)
[48]
  GI50: > 100 µM
[49]
  GI50: > 100 µM (inactive)
[50]
  GI50: > 100 µM (inactive)
